Drawing on patent US10381110B2, “Molecules” (University of Dundee, priority 2010, dated 2019), this text covers Ki for two compounds.

The term Ki denotes a measure of affinity in units of concentration, obtained from inhibition or displacement.

One assay addresses T1, 5-HT2C (Homo sapiens, UniProt P28335).
T1 sequence (P28335 33-458): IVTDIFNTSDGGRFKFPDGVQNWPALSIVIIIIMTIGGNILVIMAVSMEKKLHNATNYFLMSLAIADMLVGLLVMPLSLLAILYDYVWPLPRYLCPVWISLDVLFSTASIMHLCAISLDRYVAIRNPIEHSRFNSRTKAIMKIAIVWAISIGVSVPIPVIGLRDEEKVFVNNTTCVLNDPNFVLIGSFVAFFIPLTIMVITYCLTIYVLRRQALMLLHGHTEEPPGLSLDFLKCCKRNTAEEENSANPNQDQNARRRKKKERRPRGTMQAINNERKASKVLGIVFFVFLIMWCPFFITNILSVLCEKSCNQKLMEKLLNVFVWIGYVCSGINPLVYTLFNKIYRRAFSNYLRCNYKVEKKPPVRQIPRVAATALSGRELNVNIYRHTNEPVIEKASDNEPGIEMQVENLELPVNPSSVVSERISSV
The experiment in a line: Secondary radioligand binding assay (Ki).

The target in a further assay is T2, 5-HT3 (Homo sapiens, UniProt P46098).
T2 sequence (P46098 24-478): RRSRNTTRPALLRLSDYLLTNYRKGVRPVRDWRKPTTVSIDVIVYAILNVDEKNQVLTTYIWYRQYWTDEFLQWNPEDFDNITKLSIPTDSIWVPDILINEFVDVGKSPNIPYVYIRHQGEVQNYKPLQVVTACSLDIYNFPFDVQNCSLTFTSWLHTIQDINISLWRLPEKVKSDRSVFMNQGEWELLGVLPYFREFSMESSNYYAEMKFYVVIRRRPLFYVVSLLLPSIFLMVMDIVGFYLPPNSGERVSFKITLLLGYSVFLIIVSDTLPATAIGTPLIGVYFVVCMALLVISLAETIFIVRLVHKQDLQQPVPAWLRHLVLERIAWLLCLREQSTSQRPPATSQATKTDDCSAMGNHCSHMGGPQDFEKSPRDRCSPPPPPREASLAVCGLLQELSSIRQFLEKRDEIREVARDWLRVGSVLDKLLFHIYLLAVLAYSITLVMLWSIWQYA
The experiment in a line: Secondary radioligand binding assay (Ki).

Experimental for 5-HT2C: (§1) Assay Buffer: Standard Binding Buffer (50 mM Tris-HCl, 10 mM MgCl2, 1 mM EDTA, pH 7.4)
(§2) Membrane Fraction Source: Transiently or stably transfected cell lines (e.g., HEK293, COS, CHO, NIH3T3)
(§3) Radioligand is diluted to five times the assay concentration (see Table 18) in Standard Binding Buffer. Typically, the assay concentration of radioligand is a value between one half the KD and the KD of a particular radioligand at its target. 50 μl aliquots of radioligand are dispensed into the wells of a 96-well plate containing 100 μl of Standard Binding Buffer. Then, duplicate 50 μl aliquots of the test and reference compound dilutions are added.
(§4) The 250 μl reactions are incubated at room temperature and shielded from light (to prevent photolysis of light-sensitive ligands) for 1.5 hours, then harvested by rapid filtration onto Whatman GF/B glass fiber filters pre-soaked with 0.3% polyethyleneimine using a 96-well Brandel harverster. Four rapid 500 μl washes are performed with chilled Standard Binding Buffer to reduce non-specific binding. Filters are placed in 6 ml scintillation tubes and allowed to dry overnight. […] The tubes are capped, labeled, and counted by liquid scintillation counting. […] The filter mats are dried, then scintillant is melted onto the filters and the radioactivity retained on the filters is counted in a Microbeta scintillation counter. […]
Experimental for 5-HT3: as §1, §2, §3, §4

Consider `COc1cc2c(cc1OC)C(=O)N(CCCCN1CCN(c3ccccc3OC)CC1)C2` [GFR-VII-285], for which the affinity at 5-HT2C corresponds to a Ki of 3.43 µM.

In turn, `CC1Cc2ccccc2N1C(=O)CN1CCN(Cc2ccccc2)CC1` (centres unmarked) [STT-00185638, 2-[-4-(benzyl)-piperazin-1-yl]-1-(2-methy-2,3-dihydro-indol-1-yl)-ethanone] registered a Ki on 5-HT3 of 2110 nM.
